Earlier results as cited in patent US20250261634A1, “LIQUID HERBICIDAL COMPOSITIONS” (priority 2021, published 2025).

Tested on: weeds
Conditions: in vivo

CP(=O)(O)CC[C@H](N)C(=O)O (single isomer, unassigned) [L-isomer]
herbicidal activity relative to the racemate: twice that of the racemate
